Where two headings read alike, the source gives them in different places.
Legend:
[1] = system: Plasmodium falciparum 3D7-A10 parasites; assay: Stage specificity assay (8-h exposure of synchronized stages, IC50^8h); format: cell-based; details: for IC50: Plasmodium falciparum
[2] = system: asynchronous 3D7-A10 parasite cultures; assay: Standard 72-h exposure asexual blood stage susceptibility assay (IC50^72h); format: cell-based, Plasmodium falciparum; details: Plasmodium falciparum, 3D7, 72 h, read-out: Overall (72hr assay) Mean IC50 (IC50^72h)
[3] = system: 3D7-MR4 trophozoite parasite-infected RBCs; assay: Metabolomic profiling (hydrophilic metabolite changes, UHPLC-MS); format: cell-based, Plasmodium falciparum

CC(C)C[C@@H](/C=C/S(C)(=O)=O)NC(=O)[C@H](CC(C)C)NC(=O)[C@H](Cc1c[nH]c2ccccc12)NC(=O)CN1CCOCC1 [WLL-vs, reference compound]
IC50 ([1]; 3D7, read-out: Early rings Mean IC50 (IC50^8h), 8-h exposure 0–8 hr, 3D7-A10, survival at 60 h): 23.7 nM
IC50 ([1]; 3D7, read-out: Early trophozoites Mean IC50 (IC50^8h), 8-h exposure 16–24 hr, 3D7-A10, survival at 60 h): 57.6 nM
IC50 ([1]; 3D7, read-out: Late rings Mean IC50 (IC50^8h), 8-h exposure 8–16 hr, 3D7-A10, survival at 60 h): 29.4 nM
IC50 ([1]; 3D7, read-out: Late trophozoites Mean IC50 (IC50^8h), 8-h exposure 24–32 hr, 3D7-A10, survival at 60 h): 47.1 nM
IC50 ([1]; 3D7, read-out: Schizonts Mean IC50 (IC50^8h), 8-h exposure 32–40 hr, 3D7-A10, survival at 60 h): 50.1 nM
Stage of peak activity (Figure 6) ([1]; period when the parasite was most susceptible (lowest IC50^8h)): ring stages
IC50 [2]: 7.2 nM
changes within the set of metabolites detected (low fold change group) ([3]; 10 × IC50^72h, 2.5 hr, trophozoites): did not induce major changes
Log2(fold changes) 3-phosphoglycerate ([3]; metabolite 3-phosphoglycerate, log2 fold change): -0.1339
Log2(fold changes) 4-Pyridoxic acid ([3]; metabolite 4-Pyridoxic acid, log2 fold change): 0.0000
Log2(fold changes) 4-aminobutyrate ([3]; metabolite 4-aminobutyrate, log2 fold change): -0.0215
Log2(fold changes) 4-phosphopantetheine ([3]; metabolite 4-phosphopantetheine, log2 fold change): 0.0000
Log2(fold changes) 4-phosphopantothenate ([3]; metabolite 4-phosphopantothenate, log2 fold change): -0.0913
Log2(fold changes) 5-aminopentanoic acid ([3]; metabolite 5-aminopentanoic acid, log2 fold change): 0.0000
Log2(fold changes) 5-methyl-THF ([3]; metabolite 5-methyl-THF, log2 fold change): 0.0000
Log2(fold changes) 5-phosphoribosyl-1-pyrophosphate ([3]; metabolite 5-phosphoribosyl-1-pyrophosphate, log2 fold change): -0.1277
Log2(fold changes) 6-phospho-D-gluconate ([3]; metabolite 6-phospho-D-gluconate, log2 fold change): -0.0373
Log2(fold change) HVDD ([3]; metabolite HVDD): -0.5028
Log2(fold change) Hydroxyisocaproic acid ([3]; metabolite Hydroxyisocaproic acid): 0.0000
Log2(fold change) IDP ([3]; metabolite IDP): 0.0000
Log2(fold change) IMP ([3]; metabolite IMP): 0.0400
Log2(fold change) Inositol ([3]; metabolite Inositol): 0.0000
Log2(fold change) Isopentyl-PP ([3]; metabolite Isopentyl-PP): 0.0000
Log2(fold change) L-arginino-succinate ([3]; metabolite L-arginino-succinate): 0.0000
Log2(fold change) LD ([3]; metabolite LD): 0.0000
Log2(fold change) Myristoyl/tetradecanoyl-CoA ([3]; metabolite Myristoyl/tetradecanoyl-CoA): 0.0000
Log2(fold change) N-Acetyl-L-alanine ([3]; metabolite N-Acetyl-L-alanine): -0.0632
Log2(fold change) N-acetyl-L-ornithine ([3]; metabolite N-acetyl-L-ornithine): -0.0046
Log2(fold change) N-acetyl-glucosamine-1/6-phosphate ([3]; metabolite N-acetyl-glucosamine-1/6-phosphate): -0.0854
Log2(fold change) N-acetyl-glutamate ([3]; metabolite N-acetyl-glutamate): 0.1610
Log2(fold change) N-acetyl-glutamine ([3]; metabolite N-acetyl-glutamine): 0.0000
Log2(fold change) N-carbamoyl-L-aspartate ([3]; metabolite N-carbamoyl-L-aspartate): 0.1147
Log2(fold change) NAD+ ([3]; metabolite NAD+): 0.0000
Log2(fold change) NADH ([3]; metabolite NADH): 0.3385
Log2(fold change) NADP+ ([3]; metabolite NADP+): -0.1225
Log2(fold change) NADPH ([3]; metabolite NADPH): 0.0976
Log2(fold change) O-acetyl-L-serine ([3]; metabolite O-acetyl-L-serine): 0.0000
Log2(fold change) Octoluse 8/1P ([3]; metabolite Octoluse 8/1P): 0.0000
Log2(fold change) Octoluse Bisphosphate ([3]; metabolite Octoluse Bisphosphate): -0.1506
Log2(fold change) PD ([3]; metabolite PD): -0.2643
Log2(fold change) PE ([3]; metabolite PE): -0.3236
Log2(fold change) PEE ([3]; metabolite PEE): -0.1344
Log2(fold change) PEEK ([3]; metabolite PEEK): 0.0000
Log2(fold change) PVNF ([3]; metabolite PVNF): -0.5296
Log2(fold change) Pyroglutamic acid ([3]; metabolite Pyroglutamic acid): 0.0000
Log2(fold change) Pyrophosphate ([3]; metabolite Pyrophosphate): 0.0000
Log2(fold change) Ribose-5-phosphate ([3]; metabolite Ribose-5-phosphate): -0.2996
Log2(fold change) S-adenosyl-L-homocysteine ([3]; metabolite S-adenosyl-L-homocysteine): -0.2761
Log2(fold change) S-adenosyl-L-methioninamine ([3]; metabolite S-adenosyl-L-methioninamine): 0.0000
Log2(fold change) S-adenosyl-L-methionine ([3]; metabolite S-adenosyl-L-methionine): 0.0000
Log2(fold change) S-methyl-5'-thioadenosine ([3]; metabolite S-methyl-5'-thioadenosine): 0.0000
Log2(fold change) SD ([3]; metabolite SD): -0.1301
Log2(fold change) SDL ([3]; metabolite SDL): 0.0000
Log2(fold change) SID ([3]; metabolite SID): -0.3691
Log2(fold change) Sedoheptulose bisphosphate ([3]; metabolite Sedoheptulose bisphosphate): -0.1909
Log2(fold change) Thiamine pyrophosphate ([3]; metabolite Thiamine pyrophosphate): 0.0000
Log2(fold changes) UDP-D-glucose ([3]; metabolite UDP-D-glucose, log2 fold change): -0.0066
Log2(fold changes) UDP-D-glucuronate ([3]; metabolite UDP-D-glucuronate, log2 fold change): -0.1270
Log2(fold changes) UDP-N-acetyl-glucosamine ([3]; metabolite UDP-N-acetyl-glucosamine, log2 fold change): -0.0647
Log2(fold changes) UDP ([3]; metabolite UDP, log2 fold change): -0.3774
Log2(fold changes) UMP ([3]; metabolite UMP, log2 fold change): 0.1341
Log2(fold changes) UTP ([3]; metabolite UTP, log2 fold change): -0.1532
Log2(fold change) hydroxyphenylpyruvate ([3]; metabolite hydroxyphenylpyruvate): 0.0000
Log2(fold change) hydroxyproline/Aminolevulinate ([3]; metabolite hydroxyproline/Aminolevulinate): -0.0172
Log2(fold change) hypoxanthine ([3]; metabolite hypoxanthine): 0.1957
Log2(fold change) indole ([3]; metabolite indole): 0.0000
Log2(fold change) inosine ([3]; metabolite inosine): 0.0926
Log2(fold change) isoleucine ([3]; metabolite isoleucine): 0.0638
Log2(fold change) lactate ([3]; metabolite lactate): -0.1762
Log2(fold change) leucine ([3]; metabolite leucine): -0.0424
Log2(fold change) lysine ([3]; metabolite lysine): 0.0000
Log2(fold change) malate ([3]; metabolite malate): -0.1070
Log2(fold change) maleic acid ([3]; metabolite maleic acid): -0.1330
Log2(fold change) methionine ([3]; metabolite methionine): 0.1427
Log2(fold change) myo-inositol ([3]; metabolite myo-inositol): 0.0000
Log2(fold change) nicotinamide mononucleotide ([3]; metabolite nicotinamide mononucleotide): 0.0000
Log2(fold change) nicotinate ([3]; metabolite nicotinate): 0.0441
Log2(fold change) ornithine ([3]; metabolite ornithine): 0.0000
Log2(fold change) orotate ([3]; metabolite orotate): -0.0939
Log2(fold change) orotidine-5'-phosphate ([3]; metabolite orotidine-5'-phosphate): -0.0654
Log2(fold change) oxaloacetate ([3]; metabolite oxaloacetate): 0.0000
Log2(fold change) p-aminobenzoate ([3]; metabolite p-aminobenzoate): 0.0000
Log2(fold change) p-hydroxybenzoate ([3]; metabolite p-hydroxybenzoate): 0.0000
Log2(fold change) pantothenate ([3]; metabolite pantothenate): -0.2167
Log2(fold change) phenylalanine ([3]; metabolite phenylalanine): 0.0156
Log2(fold change) phenylpyruvate ([3]; metabolite phenylpyruvate): 0.0000
Log2(fold change) phosphoenolpyruvate ([3]; metabolite phosphoenolpyruvate): -0.0337
Log2(fold change) prephenate ([3]; metabolite prephenate): 0.0000
Log2(fold change) proline ([3]; metabolite proline): -0.1122
Log2(fold change) pyridoxine ([3]; metabolite pyridoxine): 0.0678
Log2(fold change) pyruvate ([3]; metabolite pyruvate): -0.3415
Log2(fold change) riboflavin ([3]; metabolite riboflavin): 0.0000
Log2(fold change) ribose ([3]; metabolite ribose): 0.1290
Log2(fold change) ribose-phosphate ([3]; metabolite ribose-phosphate): -0.4836
Log2(fold change) ribulose-5-phosphate ([3]; metabolite ribulose-5-phosphate): -0.5090
Log2(fold change) serine ([3]; metabolite serine): -0.0671
Log2(fold change) sn-glycerol-3-phosphate ([3]; metabolite sn-glycerol-3-phosphate): -0.0482
Log2(fold change) succinate/Methylmalonic acid ([3]; metabolite succinate/Methylmalonic acid): 0.1064
Log2(fold change) succinyl-CoA/methylmalonyl-CoA ([3]; metabolite succinyl-CoA/methylmalonyl-CoA): -0.0054
Log2(fold change) taurine ([3]; metabolite taurine): 0.0000
Log2(fold change) thiamine ([3]; metabolite thiamine): 0.0000
Log2(fold change) threonine/homoserine ([3]; metabolite threonine/homoserine): -0.1507
Log2(fold change) thymidine ([3]; metabolite thymidine): 0.0000
Log2(fold changes) thymine ([3]; metabolite thymine, log2 fold change): 0.0000
Log2(fold changes) trehalose-6-Phosphate ([3]; metabolite trehalose-6-Phosphate, log2 fold change): 0.0000
Log2(fold changes) tryptophan ([3]; metabolite tryptophan, log2 fold change): -0.0680
Log2(fold changes) tyrosine ([3]; metabolite tyrosine, log2 fold change): -0.0190
Log2(fold changes) uridine ([3]; metabolite uridine, log2 fold change): 0.0000

Source: article PMC7031696 (Cell chemical biology, 2019)
